Measurements reported in patent US20230015823A1, “METHODS OF ADMINISTERING VOXELOTOR” (Global Blood Therapeutics, Inc., priority 2019, published 2023).

Target: CYP3A4 (Homo sapiens, UniProt P08684)
Assay: Effect of voxelotor on PK of CYP3A4 probe substrate midazolam in healthy subjects
Settings: healthy subjects
Experimental: During Period 1, subjects received a single dose of caffeine 100 mg, warfarin sodium 10 mg+vitamin K 10 mg, omeprazole 20 mg, and midazolam hydrochloride 2 mg on Day 1. During Period 2, subjects received voxelotor 900 mg QD on Days 1 and 2 followed by 600 mg QD on Day 3, a single dose of caffeine 100 mg, warfarin sodium 10 mg+vitamin K 10 mg, omeprazole 20 mg, and midazolam hydrochloride 2 mg on Day 4, and voxelotor 600 mg QD on Days 4 through 7.
Whole blood and plasma concentrations of voxelotor and plasma concentrations of caffeine, paraxanthine, S-warfarin, omeprazole, 5-hydroxyomeprazole, midazolam, and 1-hydroxymidazolam were determined using validated assays.

Sequence of CYP3A4 (P08684 whole entry): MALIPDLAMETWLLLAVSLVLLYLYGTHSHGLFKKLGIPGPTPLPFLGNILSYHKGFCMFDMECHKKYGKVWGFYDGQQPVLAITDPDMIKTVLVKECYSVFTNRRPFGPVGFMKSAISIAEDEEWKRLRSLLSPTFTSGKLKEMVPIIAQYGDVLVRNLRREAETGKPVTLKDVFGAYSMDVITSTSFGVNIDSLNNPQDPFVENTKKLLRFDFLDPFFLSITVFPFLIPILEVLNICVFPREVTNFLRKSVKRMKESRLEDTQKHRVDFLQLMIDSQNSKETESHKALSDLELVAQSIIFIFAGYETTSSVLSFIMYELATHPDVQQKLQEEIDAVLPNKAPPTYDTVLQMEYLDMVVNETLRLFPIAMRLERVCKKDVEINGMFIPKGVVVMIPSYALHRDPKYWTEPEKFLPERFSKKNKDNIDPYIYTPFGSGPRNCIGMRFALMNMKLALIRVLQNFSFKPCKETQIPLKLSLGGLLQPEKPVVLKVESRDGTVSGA

SMILES | observed exposure increase with voxelotor (CYP3A4 substrate midazolam) [fold] | increase of overall exposure in the presence of voxelotor (midazolam hydrochloride 2 mg single dose, voxelotor 900/600 mg QD) [%] | increase of overall exposure of metabolite in the presence of voxelotor (midazolam metabolite, voxelotor 900/600 mg QD) [%]
Cc1ncc2n1-c1ccc(Cl)cc1C(c1ccccc1F)=NC2 [midazolam] | 1.6 | 63 | –
OCc1ncc2n1-c1ccc(Cl)cc1C(c1ccccc1F)=NC2 [1′-hydroxy-midazolam] | – | – | 75
